In patent US20060276464A1, “Diarylsulfone sulfonamides and use thereof” (Wyeth, priority 2005, published 2006) one finds fold induction data, which are given here for 23 compounds.

Like-named read-outs stand apart in the source and are kept apart here.

The target of this test is T1, SFRP-1 (Homo sapiens, UniProt Q8N474).
T1 sequence (Q8N474 32-314): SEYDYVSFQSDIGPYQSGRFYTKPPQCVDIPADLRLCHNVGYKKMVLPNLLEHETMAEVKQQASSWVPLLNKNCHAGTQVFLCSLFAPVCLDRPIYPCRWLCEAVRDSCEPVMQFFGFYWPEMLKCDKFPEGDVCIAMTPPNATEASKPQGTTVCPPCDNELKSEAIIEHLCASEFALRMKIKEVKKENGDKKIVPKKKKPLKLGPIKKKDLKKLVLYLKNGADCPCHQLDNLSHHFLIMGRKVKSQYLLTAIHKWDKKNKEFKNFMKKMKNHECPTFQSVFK
The test is described as follows: Cell-based assay for in vitro measurement of SFRP-1/SARP2 antagonist activity (U2OS cells co-transfected with 16x TCF-tk-Luciferase reporter, Wnt and hSFRP-1).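 Note: U2OS cells co-transfected with a TCF-tk luciferase reporter, a Wnt vector, hSFRP-1 or empty vector and CMV-βgal, luciferase luminescence read in cell lysates alongside βgal activity.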 The settings on record: U2OS.

[1] abbreviates: read-out: Fold Induction with SFRP-1, Conc 15 μM, with SFRP-1, fold induction over SFRP-1 control, single dose.
[2] abbreviates: read-out: Fold Induction without SFRP-1, Conc 15 μM, without SFRP-1, single dose.

Take `C#CCN(CCc1ccccc1F)S(=O)(=O)c1cc(S(=O)(=O)c2ccc(C)cc2)ccc1C` [Example 277, N-[2-(2-fluorophenyl)ethyl]-2-methyl-5-[(4-methylphenyl)sulfonyl]-N-prop-2-ynylbenzenesulfonamide]: the fold induction at 15 µM is, setting by setting: under setting [1], 1.8; under setting [2], 1.
For `Cc1ccc(S(=O)(=O)c2ccccc2)cc1S(=O)(=O)N(C)CCc1ccccc1` [Example 278, N,2-dimethyl-N-(2-phenylethyl)-5-(phenylsulfonyl)benzenesulfonamide], in that order: 1 and 0.9.
The like results for `Cc1ccc(S(=O)(=O)c2ccccc2)cc1S(=O)(=O)N1CCN(CC(=O)N2CCCC2)CC1` [Example 279, 1-{[2-methyl-5-(phenylsulfonyl)phenyl]sulfonyl}-4-(2-oxo-2-pyrrolidin-1-ylethyl)piperazine] were, in that order, 1.9 and 1.
Regarding `CCN(CC)CCN1CCN(S(=O)(=O)c2cc(S(=O)(=O)c3ccccc3)ccc2C)CC1` [Example 280, N,N-diethyl-N-[2-(4-{[2-methyl-5-(phenylsulfonyl)phenyl]sulfonyl}piperazin-1-yl)ethyl]amine], the fold induction at 15 µM by setting is: under setting [1], 2.7; under setting [2], 1.5.
The like results for `Cc1ccc(S(=O)(=O)c2ccccc2)cc1S(=O)(=O)N1CCN(CCN2CCOCC2)CC1` [Example 281, 4-[2-(4-{[2-methyl-5-(phenylsulfonyl)phenyl]sulfonyl}piperazin-1-yl)ethyl]morpholine] were, in that order, 2.8 and 1.3.
The like results for `Cc1ccc(S(=O)(=O)c2ccccc2)cc1S(=O)(=O)N1CCN(CCN2CCCC2)CC1` [Example 282, 1-{[2-methyl-5-(phenylsulfonyl)phenyl]sulfonyl}-4-(2-pyrrolidin-1-ylethyl)piperazine] were, in that order, 2.4 and 1.6.
The like results for `Cc1ccc(S(=O)(=O)c2ccccc2)cc1S(=O)(=O)N1CCN(CCCN2CCOCC2)CC1` [Example 283, 4-[3-(4-{[2-methyl-5-(phenylsulfonyl)phenyl]sulfonyl}piperazin-1-yl)propyl]morpholine] were, in that order, 1.8 and 1.3.
For the compound `CCc1ccc(S(=O)(=O)c2ccccc2)cc1S(=O)(=O)N(C)CCc1ccccc1` [Example 284, 2-ethyl-N-methyl-N-(2-phenylethyl)-5-(phenylsulfonyl)benzenesulfonamide], the fold induction at 15 µM under setting [1] stood at 1.1 and the fold induction at 15 µM under setting [2] stood at 1.2.
For the compound `CCc1ccc(S(=O)(=O)c2ccccc2)cc1S(=O)(=O)N1CCN(CC(=O)N2CCCC2)CC1` [Example 285, 1-{[2-ethyl-5-(phenylsulfonyl)phenyl]sulfonyl}-4-(2-oxo-2-pyrrolidin-1-ylethyl)piperazine], the fold induction at 15 µM under setting [1] worked out at 2 and the fold induction at 15 µM under setting [2] came to 1.1.
For `CCc1ccc(S(=O)(=O)c2ccccc2)cc1S(=O)(=O)N1CCN(CCN(CC)CC)CC1` [Example 286, N,N-diethyl-N-[2-(4-{[2-ethyl-5-(phenylsulfonyl)phenyl]sulfonyl}piperazin-1-yl)ethyl]amine], in that order: 2 and 1.3.
The like results for `CCc1ccc(S(=O)(=O)c2ccccc2)cc1S(=O)(=O)N1CCN(CCN2CCOCC2)CC1` [Example 287, 4-[2-(4-{[2-ethyl-5-(phenylsulfonyl)phenyl]sulfonyl}piperazin-1-yl)ethyl]morpholine] were, in that order, 2.1 and 1.2.
The like results for `CCc1ccc(S(=O)(=O)c2ccccc2)cc1S(=O)(=O)N1CCN(CCN2CCCC2)CC1` [Example 288, 1-{[2-ethyl-5-(phenylsulfonyl)phenyl]sulfonyl}-4-(2-pyrrolidin-1-ylethyl)piperazine] were, in that order, 3.6 and 1.7.
For `CCc1ccc(S(=O)(=O)c2ccccc2)cc1S(=O)(=O)N1CCN(CCCN2CCOCC2)CC1` [Example 289, 4-[3-(4-{[2-ethyl-5-(phenylsulfonyl)phenyl]sulfonyl}piperazin-1-yl)propyl]morpholine], the fold induction at 15 µM under setting [1] came to 2.3 and the fold induction at 15 µM under setting [2] was 1.1.
The like results for `Cc1ccc(S(=O)(=O)c2ccc(Cl)cc2)cc1S(=O)(=O)NCCN1CCOCC1` [Example 290, 5-[(4-chlorophenyl)sulfonyl]-2-methyl-N-(2-morpholin-4-ylethyl)benzenesulfonamide] were, in that order, 1.9 and 0.8.
The like results for `Cc1ccc(S(=O)(=O)c2ccc(Cl)cc2)cc1S(=O)(=O)NCCc1ccccn1` [Example 291, 5-[(4-chlorophenyl)sulfonyl]-2-methyl-N-(2-pyridin-2-ylethyl)benzenesulfonamide] were, in that order, 1.7 and 0.9.
`Cc1ccc(S(=O)(=O)c2ccc(Cl)cc2)cc1S(=O)(=O)NCCCn1ccnc1` [Example 292, 5-[(4-chlorophenyl)sulfonyl]-N-[3-(1H-imidazol-1-yl)propyl]-2-methylbenzenesulfonamide]: the fold induction at 15 µM stood at 2.3 under setting [1] and 0.8 under setting [2].
The like results for `Cc1ccc(S(=O)(=O)c2ccc(N=[N+]=[N-])cc2)cc1S(=O)(=O)NCCCn1ccnc1` [Example 293, 5-[(4-azidophenyl)sulfonyl]-N-[3-(1H-imidazol-1-yl)propyl]-2-methylbenzenesulfonamide] were, in that order, 2.5 and 0.9.
For `Cc1ccc(S(=O)(=O)c2ccccc2)cc1S(=O)(=O)NCCc1c[nH]c2ccccc12` [Example 294, N-[2-(1H-indol-3-yl)ethyl]-2-methyl-5-(phenylsulfonyl)benzenesulfonamide], in that order: 2.3 and 1.5.
For `Cc1ccc(S(=O)(=O)c2ccccc2)cc1S(=O)(=O)NCCC1CCOCC1` [Example 299, 2-methyl-5-(phenylsulfonyl)-N-(2-tetrahydro-2H-pyran-4-ylethyl)benzenesulfonamide], in that order: 3.1 and 1.1.
For the compound `CCc1ccc(S(=O)(=O)c2ccccc2)cc1S(=O)(=O)NC1CCOCC1` [Example 300, 2-ethyl-5-(phenylsulfonyl)-N-tetrahydro-2H-pyran-4-ylbenzenesulfonamide], the fold induction at 15 µM under setting [1] was found to be 3.4 and the fold induction at 15 µM under setting [2] was 1.2.
The like results for `CCc1ccc(S(=O)(=O)c2ccccc2)cc1S(=O)(=O)NCCC1CCOCC1` [Example 301, 2-ethyl-5-(phenylsulfonyl)-N-(2-tetrahydro-2H-pyran-4-ylethyl)benzenesulfonamide] were, in that order, 3.3 and 1.2.
The like results for `Cc1c(S(=O)(=O)NCCc2ccccc2)cccc1S(=O)(=O)c1ccccc1` [Example 302, 2-methyl-N-(2-phenylethyl)-3-(phenylsulfonyl)benzenesulfonamide] were, in that order, 1.2 and 1.2.
As to `CCN(C)c1ccc(S(=O)(=O)c2ccc(C)c(S(=O)(=O)NCCCn3ccnc3)c2)cc1` [Example 304, 5-({4-[ethyl(methyl)amino]phenyl}sulfonyl)-N-[3-(1H-imidazol-1-yl)propyl]-2-methylbenzenesulfonamide], the fold induction at 15 µM is, setting by setting: under setting [1], 1.7; under setting [2], 1.
